From patent US20210238170A1, “5,5-Difluoro- and 5-Fluoro-5-Methyl-C-Glycoside Derivatives Useful As Dual SGLT1 / SGLT2 Modulators” (Janssen Pharmaceutica NV, priority 2018, published 2021)
pIC50: −log10 of the molar value.

Columns and labels:
[1] = target: T1, human SGLT2 (Homo sapiens, UniProt P31639); assay: SGLT2 in vitro assay: Na-dependent 14C-AMG uptake in CHO-K1 cells stably expressing human SGLT2; assay type: cell-based; conditions: CHO-K1 cells stably expressing human SGLT2, 14C-AMG uptake; for inhibition at 0.3 µM: read-out: SGLT2 % Inh @ 0.3 μM; for pIC50: compounds of formula (I) where R0 is fluoro
T1 construct: expressed in transfected cells
T1 sequence (P31639 1-672): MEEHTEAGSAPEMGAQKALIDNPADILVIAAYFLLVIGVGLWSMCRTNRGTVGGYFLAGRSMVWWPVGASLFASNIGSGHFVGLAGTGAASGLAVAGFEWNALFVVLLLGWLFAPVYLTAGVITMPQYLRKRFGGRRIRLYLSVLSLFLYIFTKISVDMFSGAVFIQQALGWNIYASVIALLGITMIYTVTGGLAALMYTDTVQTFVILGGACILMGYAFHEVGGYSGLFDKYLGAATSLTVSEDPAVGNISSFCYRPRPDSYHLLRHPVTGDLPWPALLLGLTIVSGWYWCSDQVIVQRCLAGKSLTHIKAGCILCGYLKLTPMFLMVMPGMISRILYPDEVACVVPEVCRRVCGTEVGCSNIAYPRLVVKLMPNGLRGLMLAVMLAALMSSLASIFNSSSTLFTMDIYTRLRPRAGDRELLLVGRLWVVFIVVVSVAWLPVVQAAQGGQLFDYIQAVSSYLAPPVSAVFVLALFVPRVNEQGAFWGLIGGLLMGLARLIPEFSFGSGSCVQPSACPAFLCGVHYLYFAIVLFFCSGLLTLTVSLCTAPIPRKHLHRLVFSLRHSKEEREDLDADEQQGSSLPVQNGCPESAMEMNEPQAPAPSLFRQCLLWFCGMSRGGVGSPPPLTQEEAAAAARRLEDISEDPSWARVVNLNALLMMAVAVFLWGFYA
Method in brief: (§1)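 CHO-K1 cells stably expressing human SGLT1 or SGLT2, induced with 10 mM Na-butyrate for 24 h. Compounds (0.001–10 μM) in Na+-containing HEPES/Tris buffer pH 7.4 were applied for 10 min, then 14C-AMG ([…]) for 2 h at 37°C; Na-dependent uptake read by scintillation; %-inhibition or IC50.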

[2] = target: T2, human SGLT1 (Homo sapiens, UniProt P13866); assay: SGLT1 in vitro assay: Na-dependent 14C-AMG uptake in CHO-K1 cells stably expressing human SGLT1; assay type: cell-based; conditions: CHO-K1 cells stably expressing human SGLT1, 14C-AMG uptake; for inhibition at 0.3 µM: read-out: SGLT1 % Inh @ 0.3 μM; for pIC50: compounds of formula (I) where R0 is fluoro
T2 construct: expressed in transfected cells
T2 sequence (P13866 1-664): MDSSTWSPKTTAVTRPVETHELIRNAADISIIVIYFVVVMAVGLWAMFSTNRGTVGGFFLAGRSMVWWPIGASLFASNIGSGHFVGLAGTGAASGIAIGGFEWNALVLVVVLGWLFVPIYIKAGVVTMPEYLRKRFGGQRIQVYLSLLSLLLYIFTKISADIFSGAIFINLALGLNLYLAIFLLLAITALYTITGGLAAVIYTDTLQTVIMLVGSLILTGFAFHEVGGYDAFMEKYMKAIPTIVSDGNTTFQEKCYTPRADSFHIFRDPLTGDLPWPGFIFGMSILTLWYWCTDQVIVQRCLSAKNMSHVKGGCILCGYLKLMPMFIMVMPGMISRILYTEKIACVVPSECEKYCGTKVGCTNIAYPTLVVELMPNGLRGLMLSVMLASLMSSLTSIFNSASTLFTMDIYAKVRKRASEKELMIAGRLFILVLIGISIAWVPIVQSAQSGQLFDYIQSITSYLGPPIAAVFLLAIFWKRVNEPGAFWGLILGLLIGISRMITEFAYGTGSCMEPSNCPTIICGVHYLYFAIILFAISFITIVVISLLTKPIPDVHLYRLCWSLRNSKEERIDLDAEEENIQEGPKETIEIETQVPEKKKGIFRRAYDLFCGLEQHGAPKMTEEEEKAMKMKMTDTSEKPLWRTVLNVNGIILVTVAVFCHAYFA
Method in brief: as §1

Compound `CCc1cc(OC)c([C@@H]2O[C@H](CO)C(F)(F)[C@H](O)[C@H]2O)cc1Cc1ccc(C2CC2)cc1` [Compound 151] has an inhibition at 0.3 µM [1] of 88%, a pIC50 [1] of 8.21 and an inhibition at 0.3 µM [2] of 52.1%. For the same compound, the pIC50 [2] was 6.19.
For `CCc1cc(O)c([C@@H]2O[C@H](CO)C(F)(F)[C@H](O)[C@H]2O)cc1Cc1ccc(C2CC2)cc1` [Compound 150], the inhibition at 0.3 µM [1] was 72.5%, the pIC50 [1] was 8.51 and the inhibition at 0.3 µM [2] was 84.4%. The pIC50 [2] was 7.14.
In the case of `COc1cc(O)c([C@@H]2O[C@H](CO)C(F)(F)[C@H](O)[C@H]2O)cc1Cc1ccc2c(c1)CCO2` [Compound 62, (2S,3R,4R,6R)-2-[5-(2,3-dihydrobenzofuran-5-ylmethyl)-2-hydroxy-4-methoxy-phenyl]-5,5-difluoro-6-(hydroxymethyl)tetrahydropyran-3,4-diol], the inhibition at 0.3 µM [1] was 79.6%, the pIC50 [1] was 7.76 and the inhibition at 0.3 µM [2] was 40.9%. For the same compound, the pIC50 [2] was 6.15.
`OC[C@H]1O[C@@H](c2cc3c(c(Cc4ccc(C5CC5)cc4)c2)OCC3)[C@H](O)[C@@H](O)C1(F)F` [Compound 174] was tested, and the “SGLT2 % Inh @ 0.3 μM” value [1] was 82.9% and the “SGLT1 % Inh @ 0.3 μM” value [2] was 38.0%.
For `COc1cc(C)c(Cc2cc3cc(F)ccc3s2)cc1[C@@H]1O[C@H](CO)C(F)(F)[C@H](O)[C@H]1O` [Compound 53], the “SGLT2 % Inh @ 0.3 μM” value [1] was 87.1% and the “SGLT1 % Inh @ 0.3 μM” value [2] was 0.0%.
Work on `COc1cc(C)c(Cc2ccc(OCF)cc2)cc1[C@@H]1O[C@H](CO)C(F)(F)[C@H](O)[C@H]1O` [Compound 138] yielded an inhibition at 0.3 µM [1] of 76.7%, a pIC50 [1] of 8.72 and an inhibition at 0.3 µM [2] of 40.3%. The pIC50 [2] was 6.08.
With `CCc1ccc(Cc2cc([C@@H]3O[C@H](CO)C(F)(F)[C@H](O)[C@H]3O)c(O)cc2C2CC2)cc1` [Compound 137] the “SGLT2 % Inh @ 0.3 μM” value [1] was 52.5% and the “SGLT1 % Inh @ 0.3 μM” value [2] was 50.4%.
Work on `OC[C@H]1O[C@@H](c2cc(Cc3ccc4c(c3)OCCO4)c(Cl)cc2O)[C@H](O)[C@@H](O)C1(F)F` [Compound 45, (2S,3R,4R,6R)-2-[4-chloro-5-(2,3-dihydro-1,4-benzodioxin-6-ylmethyl)-2-hydroxy-phenyl]-5,5-difluoro-6-(hydroxymethyl)tetrahydropyran-3,4-diol] yielded an inhibition at 0.3 µM [1] of 82%, a pIC50 [1] of 8.85 and an inhibition at 0.3 µM [2] of 81.7%. The pIC50 [2] was 7.31.
For `COc1ccc(Cc2cc([C@@H]3O[C@H](CO)C(F)(F)[C@H](O)[C@H]3O)c(O)cc2C)cc1` [Compound 108, (2S,3R,4R,6R)-5,5-difluoro-2-[2-hydroxy-5-[(4-methoxyphenyl)methyl]-4-methyl-phenyl]-6-(hydroxymethyl)tetrahydropyran-3,4-diol], the inhibition at 0.3 µM [1] was 94.4%, the pIC50 [1] was 8.80 and the inhibition at 0.3 µM [2] was 66.6%. The pIC50 [2] was 7.15.
Compound `CCc1ccc(Cc2cc([C@@H]3O[C@H](CO)C(F)(F)[C@H](O)[C@H]3O)c(O)cc2Cl)cc1` [Compound 127, (2S,3R,4R,6R)-2-{4-chloro-5-[(4-ethylphenyl)methyl]-2-hydroxyphenyl}-5,5-difluoro-6-(hydroxymethyl)oxane-3,4-diol] has an inhibition at 0.3 µM [1] of 89.2%, a pIC50 [1] of 8.59 and an inhibition at 0.3 µM [2] of 67.6%. The pIC50 [2] was 6.85.
In the case of `Cc1cc(O)c([C@@H]2O[C@H](CO)C(F)(F)[C@H](O)[C@H]2O)cc1Cc1cc2c(s1)CCN(C#N)C2` [Compound 82], the “SGLT2 % Inh @ 0.3 μM” value [1] was 85.4%, the pIC50 [1] was 8.26 and the “SGLT1 % Inh @ 0.3 μM” value [2] was 50.3%. The pIC50 [2] was 6.30.
For `COc1cc(C)c(Cc2ccc(OC(F)(F)F)cc2)cc1[C@@H]1O[C@H](CO)C(F)(F)[C@H](O)[C@H]1O` [Compound 101], the “SGLT2 % Inh @ 0.3 μM” value [1] was 77.2% and the “SGLT1 % Inh @ 0.3 μM” value [2] was 30.3%.
In the case of `N#Cc1cc(O)c([C@@H]2O[C@H](CO)C(F)(F)[C@H](O)[C@H]2O)cc1Cc1ccc(C2CC2)cc1` [Compound 173], the “SGLT2 % Inh @ 0.3 μM” value [1] was 83.3% and the “SGLT1 % Inh @ 0.3 μM” value [2] was 17.3%.
Work on `COc1cccc(Cc2cc([C@@H]3O[C@H](CO)C(F)(F)[C@H](O)[C@H]3O)c(O)cc2Cl)c1` [Compound 157] yielded an inhibition at 0.3 µM [1] of 89.7%, a pIC50 [1] of 8.59 and an inhibition at 0.3 µM [2] of 71.8%. It also gave a pIC50 [2] of 6.95.
